From PMC11882969 (Nature Communications, 2025)
Values joined by “and” are separate entries in the source; they are usually repeats but may differ in a detail not shown here. Identical values can stand only once. Like-named read-outs stand apart in the source and are kept apart here. Marks after values point to notes of the source that are not given here.

Legend:
CB1 (rCB1) [1] = target: T1, CB1 (rCB1) (Rattus norvegicus, UniProt P20272); test: Single-point radioligand displacement screen; format: binding
T1 sequence (P20272 whole entry): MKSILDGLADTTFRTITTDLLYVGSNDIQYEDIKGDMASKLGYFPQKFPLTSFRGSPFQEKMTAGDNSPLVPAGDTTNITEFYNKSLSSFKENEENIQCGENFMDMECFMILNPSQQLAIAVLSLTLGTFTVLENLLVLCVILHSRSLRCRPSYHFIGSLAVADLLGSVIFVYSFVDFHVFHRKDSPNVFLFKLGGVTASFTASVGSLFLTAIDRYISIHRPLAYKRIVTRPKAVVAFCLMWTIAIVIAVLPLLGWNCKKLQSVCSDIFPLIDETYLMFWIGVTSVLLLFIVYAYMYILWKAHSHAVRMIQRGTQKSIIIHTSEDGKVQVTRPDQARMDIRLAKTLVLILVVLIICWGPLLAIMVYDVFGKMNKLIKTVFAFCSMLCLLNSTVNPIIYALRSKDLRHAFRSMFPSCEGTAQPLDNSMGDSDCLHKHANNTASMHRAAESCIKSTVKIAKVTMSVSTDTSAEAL

hCB1 [2] = target: T2, hCB1 (Homo sapiens, UniProt P21554); test: Lance Ultra cAMP accumulation assay, CHO cells; format: cell-based; set-up: expressed in transfected cells; settings: replicates, sheet FigureS2a;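 also: human CB1R stably expressed in CHO cells, ligands co-incubated with forskolin at room temperature, read-out is lowering of forskolin-stimulated cAMP accumulation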
T2 sequence (P21554 whole entry): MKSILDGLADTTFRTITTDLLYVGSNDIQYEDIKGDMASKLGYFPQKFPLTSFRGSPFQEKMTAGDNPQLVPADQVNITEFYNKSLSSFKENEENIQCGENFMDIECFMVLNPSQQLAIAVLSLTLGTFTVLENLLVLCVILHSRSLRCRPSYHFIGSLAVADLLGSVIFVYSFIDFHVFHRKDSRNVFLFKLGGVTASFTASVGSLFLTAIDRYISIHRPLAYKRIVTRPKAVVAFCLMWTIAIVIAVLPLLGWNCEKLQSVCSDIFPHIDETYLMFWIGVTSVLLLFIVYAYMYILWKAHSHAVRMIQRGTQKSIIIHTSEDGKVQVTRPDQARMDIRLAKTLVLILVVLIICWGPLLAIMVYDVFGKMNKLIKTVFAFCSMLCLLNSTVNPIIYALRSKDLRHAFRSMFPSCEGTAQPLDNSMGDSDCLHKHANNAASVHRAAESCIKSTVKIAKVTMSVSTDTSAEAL

CB1 (rCB1) [3] = target: T1, CB1 (rCB1); test: Radioligand competition binding, [3H]-CP-55,940, rat brain membranes
hCB1 [4] = target: T2, hCB1; test: bioSensAll ebBRET signaling profiling, hCB1; format: cell-based; set-up: host or cells: HEK293SL cells, transient PEI transfection; settings: for Barr2+GRK2 hCB1 response: Barr2+GRK2 biosensor; for Gi1 hCB1 / GoB hCB1: single replicate values, FigS6a; for EC50: read-out: EC50 [95% CI]; for Emax: normalized to CP-55,940

**Q.** What does the source list for `Cc1c(C(=O)OCC2CSc3ccccc3O2)cnn1Cc1ccccc1` (centres unmarked) [‘7800]?
**A.** % 1H-CP-55,940 displacement (mean) from single point screen (CB1 (rCB1) [1]; 10 µM, 1 µM or 300 nM by cell colour (not visible)): 80.92%; rep1_displacement (CB1 (rCB1) [1]; Figure 1c source data, replicate 1): 81.9; rep2_displacement (CB1 (rCB1) [1]; Figure 1c source data, replicate 2): 79.7; rep3_displacement (CB1 (rCB1) [1]; Figure 1c source data, replicate 3): 81.1; cAMP assay signal, concentration-response point (hCB1 [2]; compound 0.01 nM): 0.002674 and 0.00241 and 0.002252; cAMP assay signal, concentration-response point (hCB1 [2]; compound 0.1 nM): 0.00346* and 0.001953 and 0.002364; cAMP assay signal, concentration-response point (hCB1 [2]; compound 1 nM): 0.002571 and 0.002123 and 0.001894; cAMP assay signal, concentration-response point (hCB1 [2]; compound 10 nM): 0.002732 and 0.002198 and 0.002584; cAMP assay signal, concentration-response point (hCB1 [2]; compound 100 nM): 0.002212 and 0.002457 and 0.002193; cAMP assay signal, concentration-response point (hCB1 [2]; compound 1000 nM): 0.002381 (2×) and 0.002128; cAMP assay signal, concentration-response point (hCB1 [2]; compound 10000 nM): 0.002 and 0.002342 and 0.001808; cAMP assay signal, concentration-response point (hCB1 [2]; compound 100000 nM): 0.001289 and 0.001131 and 0.00137; radioligand binding remaining, competition curve (Figure2e), replicate values (CB1 (rCB1) [3]; log[drug] -3.643): 10.4237 and 31.3638 and 29.0535; radioligand binding remaining, competition curve (Figure2e), replicate values (CB1 (rCB1) [3]; log[drug] -4.35655): 33.4463 and 9.669 and 4.937; radioligand binding remaining, competition curve (Figure2e), replicate values (CB1 (rCB1) [3]; log[drug] -5.07): 28.6441 and 35.1835 and 32.9974; radioligand binding remaining, competition curve (Figure2e), replicate values (CB1 (rCB1) [3]; log[drug] -5.783): 65.4237 and 64.1301 and 55.9597; radioligand binding remaining, competition curve (Figure2e), replicate values (CB1 (rCB1) [3]; log[drug] -6.496): 99.1808 and 92.7484 and 90.0088; radioligand binding remaining, competition curve (Figure2e), replicate values (CB1 (rCB1) [3]; log[drug] -7.21): 109.096 and 99.3733 and 111.043; radioligand binding remaining, competition curve (Figure2e), replicate values (CB1 (rCB1) [3]; log[drug] -7.923): 105.847 and 88.1826 and 105.215; radioligand binding remaining, competition curve (Figure2e), replicate values (CB1 (rCB1) [3]; log[drug] -8.636): 93.4322 and 101.298 and 96.7572; pKi [95% CI] (CB1 (rCB1) [3]; rCB1): 6.0 [5.78 – 6.21]; Barr2+GRK2 hCB1 response (hCB1 [4]; Log [Compound] (M) -4.22186): 3.174; Barr2+GRK2 hCB1 response (hCB1 [4]; Log [Compound] (M) -4.63927): -20.118; Barr2+GRK2 hCB1 response (hCB1 [4]; Log [Compound] (M) -5.05788): -51.0681; Barr2+GRK2 hCB1 response (hCB1 [4]; Log [Compound] (M) -5.47381): -52.3444; Barr2+GRK2 hCB1 response (hCB1 [4]; Log [Compound] (M) -5.89285): -39.9006; Barr2+GRK2 hCB1 response (hCB1 [4]; Log [Compound] (M) -6.31878): -51.3872; Barr2+GRK2 hCB1 response (hCB1 [4]; Log [Compound] (M) -6.72585): -54.5779; Barr2+GRK2 hCB1 response (hCB1 [4]; Log [Compound] (M) -7.14267): -56.4924; Barr2+GRK2 hCB1 response (hCB1 [4]; Log [Compound] (M) -7.55284): -57.7686; Barr2+GRK2 hCB1 response (hCB1 [4]; Log [Compound] (M) -8): -46.9202; Barr2+GRK2 hCB1 response (hCB1 [4]; Log [Compound] (M) -8.22186): -10.8649; Barr2+GRK2 hCB1 response (hCB1 [4]; Log [Compound] (M) -8.39794): -42.7722; Barr2+GRK2 hCB1 response (hCB1 [4]; Log [Compound] (M) -8.68787): -27.1376; Barr2+GRK2 hCB1 response (hCB1 [4]; Log [Compound] (M) -9.15521): -45.9629; Barr2+GRK2 hCB1 response (hCB1 [4]; Log [Compound] (M) -9.61989): -54.897; Barr2+GRK2 hCB1 response (hCB1 [4]; Log [Compound] (M) -10.0969): -61.2784; Barr2+GRK2 hCB1 response (hCB1 [4]; Log [Compound] (M) -10.5529): -43.4104; Barr2+GRK2 hCB1 response (hCB1 [4]; Log [Compound] (M) -11.0177): -60.6403; Barr2+GRK2 hCB1 response (hCB1 [4]; Log [Compound] (M) -11.4949): -45.3248; Barr2+GRK2 hCB1 response (hCB1 [4]; Log [Compound] (M) -11.9208): -40.5387; Barr2+GRK2 hCB1 response (hCB1 [4]; Log [Compound] (M) -12.3979): -30.0093; Barr2+GRK2 hCB1 response (hCB1 [4]; Log [Compound] (M) -12.8861): -43.4104; Barr2+GRK2 hCB1 response (hCB1 [4]; Log [Compound] (M) -13.3979): -3.845; Gi1 hCB1 (hCB1 [4]; Log [Compound] (M) -4.22186): 25.6433; GoB hCB1 (hCB1 [4]; Log [Compound] (M) -4.22186): 18.8832; Gi1 hCB1 (hCB1 [4]; Log [Compound] (M) -4.63927): 18.3425; GoB hCB1 (hCB1 [4]; Log [Compound] (M) -4.63927): 15.081; Gi1 hCB1 (hCB1 [4]; Log [Compound] (M) -5.05788): 16.1253; GoB hCB1 (hCB1 [4]; Log [Compound] (M) -5.05788): 13.1365; Gi1 hCB1 (hCB1 [4]; Log [Compound] (M) -5.47381): 12.8471; GoB hCB1 (hCB1 [4]; Log [Compound] (M) -5.47381): 14.5949; Gi1 hCB1 (hCB1 [4]; Log [Compound] (M) -5.89285): 10.5191; GoB hCB1 (hCB1 [4]; Log [Compound] (M) -5.89285): 11.0184; Gi1 hCB1 (hCB1 [4]; Log [Compound] (M) -6.31878): 9.3; GoB hCB1 (hCB1 [4]; Log [Compound] (M) -6.31878): 4.265; Gi1 hCB1 (hCB1 [4]; Log [Compound] (M) -6.72585): 1.761; GoB hCB1 (hCB1 [4]; Log [Compound] (M) -6.72585): -3.895; Gi1 hCB1 (hCB1 [4]; Log [Compound] (M) -7.14267): -0.6935; GoB hCB1 (hCB1 [4]; Log [Compound] (M) -7.14267): -5.024; Gi1 hCB1 (hCB1 [4]; Log [Compound] (M) -7.55284): -2.087; GoB hCB1 (hCB1 [4]; Log [Compound] (M) -7.55284): -3.843; Gi1 hCB1 (hCB1 [4]; Log [Compound] (M) -8): -2.0396; GoB hCB1 (hCB1 [4]; Log [Compound] (M) -8): -4.659; Gi1 hCB1 (hCB1 [4]; Log [Compound] (M) -8.22186): 3.424; GoB hCB1 (hCB1 [4]; Log [Compound] (M) -8.22186): -0.09294; Gi1 hCB1 (hCB1 [4]; Log [Compound] (M) -8.39794): -0.9469; GoB hCB1 (hCB1 [4]; Log [Compound] (M) -8.39794): -3.478; Gi1 hCB1 (hCB1 [4]; Log [Compound] (M) -8.68787): -0.4717; GoB hCB1 (hCB1 [4]; Log [Compound] (M) -8.68787): -5.371; Gi1 hCB1 (hCB1 [4]; Log [Compound] (M) -9.15521): -0.4876; GoB hCB1 (hCB1 [4]; Log [Compound] (M) -9.15521): -5.492; Gi1 hCB1 (hCB1 [4]; Log [Compound] (M) -9.61989): 0.05088; GoB hCB1 (hCB1 [4]; Log [Compound] (M) -9.61989): -8.027; Gi1 hCB1 (hCB1 [4]; Log [Compound] (M) -10.0969): -0.4084; GoB hCB1 (hCB1 [4]; Log [Compound] (M) -10.0969): -5.128; Gi1 hCB1 (hCB1 [4]; Log [Compound] (M) -10.5529): -1.2; GoB hCB1 (hCB1 [4]; Log [Compound] (M) -10.5529): -2.958; Gi1 hCB1 (hCB1 [4]; Log [Compound] (M) -11.0177): -3.528; GoB hCB1 (hCB1 [4]; Log [Compound] (M) -11.0177): -7.871; Gi1 hCB1 (hCB1 [4]; Log [Compound] (M) -11.4949): -2.61; GoB hCB1 (hCB1 [4]; Log [Compound] (M) -11.4949): -5.562; Gi1 hCB1 (hCB1 [4]; Log [Compound] (M) -11.9208): -3.829; GoB hCB1 (hCB1 [4]; Log [Compound] (M) -11.9208): -5.683; Gi1 hCB1 (hCB1 [4]; Log [Compound] (M) -12.3979): -3.75; GoB hCB1 (hCB1 [4]; Log [Compound] (M) -12.3979): -6.656; Gi1 hCB1 (hCB1 [4]; Log [Compound] (M) -12.8861): -1.469; GoB hCB1 (hCB1 [4]; Log [Compound] (M) -12.8861): -6.1521; Gi1 hCB1 (hCB1 [4]; Log [Compound] (M) -13): 0.2409; GoB hCB1 (hCB1 [4]; Log [Compound] (M) -13): -5.215; Gi1 hCB1 (hCB1 [4]; Log [Compound] (M) cell empty): -0.4876; GoB hCB1 (hCB1 [4]; Log [Compound] (M) cell empty): -5.406; pEC50 [95% CI] (hCB1 [4]; hCB1 Gi1): 5.2 [6.0]; pEC50 [95% CI] (hCB1 [4]; hCB1 GoB): 6.2 [5.9 – 6.4]; EC50 (hCB1 [4]; hCB1 Gi1): 6.79 µM; EC50 (hCB1 [4]; hCB1 GoB): 0.597 µM; Emax (hCB1 [4]; read-out: Emax [95% CI], hCB1 Gi1): 34%; Emax (hCB1 [4]; read-out: Emax [95% CI], hCB1 GoB): 21%
